For one molecule, Activity, IC50 and inhibition results are on record in ChEMBL document CHEMBL2021800, “Aberrant cyclization affords a C-6 modified cyclic adenosine 5'-diphosphoribose analogue with biological activity in Jurkat T cells” (J Med Chem, 2012).

Holding throughout (assay type): functional, cell-based
Assay [1] relates to Jurkat. The experiment in a line: Induction of Ca2+ release in human Jurkat T cells at 10 to 30 uM using fluo-3 dye by spectrofluorometry analysis.
Assay [2] deals with Jurkat. The experiment in a line: Inhibition of cADPR-induced Ca2+ release in human Jurkat T cells using fluo-3 dye by spectrofluorometry analysis.
Assay [3] deals with Jurkat. The assay can be described thus: Inhibition of N1-cIDPR-induced Ca2+ release in human Jurkat T cells using fluo-3 dye by spectrofluorometry analysis.
The test system of assay [4] is Jurkat. The experiment in a line: Induction of Ca2+ release in human Jurkat T cells at 100 to 300 uM using fluo-3 dye by spectrofluorometry analysis.

Calls of active or inactive are those of the source. No cut-off for these calls is given here.

Broadly, the IC50 is the concentration that gives 50% inhibition. Lower therefore signals greater potency in that assay. For `O=P1(O)OC[C@H]2O[C@H]([C@H](O)[C@@H]2O)n2cnc3c(ncn3[C@@H]3O[C@H](COP(=O)(O)O1)[C@@H](O)[C@H]3O)c2=S`, the result in the assay with Jurkat [1] was inactive. In the assay on Jurkat [2], the IC50 was determined as 30 µM and the inhibition entry was “Dose-dependent effect”. In the assay on Jurkat [3], the IC50 stood at 3000 nM and the inhibition result was “Dose-dependent effect”. The outcome in the assay with Jurkat [4] was Active.
